Laboratory results reported in article PMC9815544, “Discovery of potent and noncovalent KRAS^G12D inhibitors: Structure-based virtual screening and biological evaluation” (Frontiers in Pharmacology, 2022).
Read-outs that look alike come from different tables or passages of the source.

How the values were obtained:
KRAS^G12D [1] = molecular target: T1, KRAS^G12D (Homo sapiens, UniProt P01116, G12D); conditions: known inhibitor, Figure 1, cited from earlier work
T1 construct: purchased Abcam

Panc 04.03 cells = assay: MTT cell proliferation assay; type: cell-based; conditions: Homo sapiens, 72 h treatment
Description: According to the previously reported method ([Yang et al., 2019]), the human pancreatic cancer cell line (Panc 04.03) was seeded at the density of 2.4 × 10^4 on 96-well plates. After incubation at 37°C with 5% CO2 for 24 h, the cells were incubated with different concentrations of inhibitors under the same conditions. After 72 h, MTT (0.5 mg/ml, 100 μl) was added after the supernatant was discarded. Then keep the 96-well plate at 37°C for 4 h. After that, abandon the medium and inject 200 μl of dimethyl sulfoxide (DMSO) into each well. The spectrophotometric absorbance of the sample at 570 nm was measured using a Synergy 4 Microplate Reader (BioTek Instruments Inc., United States). All of the compounds were tested three times in each of the cells.

KRAS^G12D [2] = molecular target: T1, KRAS^G12D; assay: Microscale thermophoresis (MST) binding assay; conditions: room temperature
Description: MST is an effective method to evaluate biomolecular interactions and has been used to study the interactions between binding partners of different molecular sizes ([Wienken et al., 2010]; [Seidel et al., 2013]). According to the previously reported method to measure the interaction between small molecule inhibitors and KRAS^G12D protein, the MST assay was performed using Monolith NT.115 instrument (NanoTemp Technologies, GmbH, Munich, Germany) ([Wienken et al., 2010]). The red fluorescent dye was used for KRAS^G12D fluorescent labeling. Small molecule inhibitors were diluted 1:1 and titrated. The binding buffer (50 mM Tris, 230 mM NaCl) was added to the dilution curve of the small molecule inhibitors and the labeled protein. The final sample was centrifuged at 13,000 rpm for 10 min, and then filled into the capillary tube for MST analysis with 20% LED power and 50% MST power at room temperature. The equilibrium dissociation constant (K d) was calculated using Nano Temper Analysis software.

[3] = system: Panc 04.03 xenograft tumors; assay: In vivo anticancer activity, Panc 04.03 xenograft; parameters: species or system BALB/c nude mice; conditions: 3 and 10 mg/kg intraperitoneal every 4 days, five times, 20 days, vs vehicle
Description: Based on previously reported protocols for investigating inhibition in vivo ([Zhou et al., 2022]), we injected Panc 04.03 cells (200 μl, 1 × 10^7 cells) in the subdermal space on the right flank of 6-week-old BALB/c nude mice (Changzhou Cavens Laboratory Animal Co., Ltd, China). All experimental protocols were approved by the Animal Ethics Committee of China Pharmaceutical University (Ethic approval number: 2022–11–001). Once tumors grew to 80–100 mm^3, mice were randomly divided into three groups (5 mice per group) and intraperitoneally administered with vehicle, hit compound 3 (3 mg/kg) and hit compound 3 (10 mg/kg) every 4 days for a total of five times. Tumor volume and body weight were measured every 4 days. Tumor volume was calculated using the formula (c × c × d)/2 (c, the smallest diameter; d, the largest diameter).

T1 sequence (P01116 1-188 isoform P01116-2 G12D): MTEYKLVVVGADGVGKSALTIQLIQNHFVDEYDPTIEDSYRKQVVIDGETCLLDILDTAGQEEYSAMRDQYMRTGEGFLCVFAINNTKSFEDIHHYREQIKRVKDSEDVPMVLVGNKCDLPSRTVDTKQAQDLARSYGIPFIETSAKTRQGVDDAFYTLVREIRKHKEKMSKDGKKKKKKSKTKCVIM

SMILES | IC50 (Panc 04.03 cells) [nM] | Kd (KRAS^G12D [2]) [nM] | also measured
Cn1cnc(Cn2ccc3ccc(CNCc4[nH]c5ccccc5c4[C@H]4NC(=O)c5ccc(O)cc54)cc32)c1 [BI-2852] | – | – | IC50 (KRAS^G12D [1]; ref Kessler et al., 2019): 6700 nM
C#Cc1c(F)ccc2cc(O)cc(-c3ncc4c(N5CC6CCC(C5)N6)nc(OCC(C)NC(F)(F)F)nc4c3F)c12 (stereo not shown) [Hit compound 1] | 212 | 0.98 ± 0.09 | –
C#Cc1c(F)ccc2cc(O)cc(-c3ncc4c(N5CC6CCC(C5)N6)nc(OCC5CCCN5CC5CC5)nc4c3F)c12 (stereo not shown) [Hit compound 2] | 90 | 0.46 ± 0.08 | –
Oc1cc(-c2ncc3c(N4CC5CCC(C4)N5)nc(OCC4CCCN4CCC4CCCC4)nc3c2F)c2c(Cl)cccc2c1 (stereo not shown) [Hit compound 3] | 43.8 | 0.13 ± 0.05 | Tumor growth (tumor volume) of Panc 04.03 xenograft [3]: significantly inhibited
Oc1cc(-c2ncc3c(N4CC5CCC(C4)N5)nc(OCCNC4CCCCC4)nc3c2F)c2c(Cl)cccc2c1 [Hit compound 4] | 146 | 0.76 ± 0.11 | –
Cc1cccc2cccc(N3CCc4c(nc(OCC5CCCN5C)nc4N4CC5CCC(C4)N5)C3)c12 (stereo not shown) [TH-Z835, reference compound] | > 300 | – | IC50 (KRAS^G12D [1]; ref Mao et al., 2022): 1600 nM
NC1(C(=O)NCCCn2cc(-c3ccc(OC(F)(F)F)cc3)c3cc(CN4CCN(Cc5c(Cl)cccc5Cl)CC4)ccc32)CCNCC1 [compound 3144] | – | – | IC50 (KRAS^G12D [1]; ref Welsch et al., 2017): 3800 nM
